These results are taken from patent US7592345B2, “Piperazine and [1,4]diazepan derivatives as NK antagonists” (Hoffmann-La Roche Inc., priority 2007, dated 2009).

This test has as its target T1, recombinant human NK3 receptor (Homo sapiens, UniProt P29371).
T1 construct: expressed in transfected cells; host or cells: HEK293 cells (transient expression), membranes
T1 sequence (P29371 1-465): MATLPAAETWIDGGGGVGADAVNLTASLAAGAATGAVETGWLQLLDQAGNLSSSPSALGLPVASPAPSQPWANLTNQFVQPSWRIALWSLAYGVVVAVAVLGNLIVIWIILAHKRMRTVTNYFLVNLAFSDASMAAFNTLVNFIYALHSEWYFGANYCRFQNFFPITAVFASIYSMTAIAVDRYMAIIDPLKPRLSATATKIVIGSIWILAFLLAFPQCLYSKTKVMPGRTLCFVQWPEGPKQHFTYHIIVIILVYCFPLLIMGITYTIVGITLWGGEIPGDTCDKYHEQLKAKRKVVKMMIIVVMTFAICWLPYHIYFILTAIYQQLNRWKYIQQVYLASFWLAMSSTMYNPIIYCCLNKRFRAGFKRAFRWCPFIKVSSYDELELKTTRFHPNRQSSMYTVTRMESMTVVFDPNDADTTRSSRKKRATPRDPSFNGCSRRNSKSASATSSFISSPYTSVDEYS
Briefly: [3H]SR142801 competition binding assay. To be noted: [3H]SR142801, membranes from HEK293 cells transiently expressing recombinant human NK3 receptor; read-out: hNK3 Ki. The procedure, abridged:
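Membranes from HEK293 cells transiently expressing human NK3 were incubated 75 min at RT with [3H]SR142801 at its KD and inhibitor (0.0003-10 μM) in Tris-HCl pH 7.4/MnCl2/phosphoramidon/BSA. Nonspecific binding used 10 μM SB222200. Ki from Hill-fitted IC50 via Cheng-Prusoff, duplicate determinations.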

As usually defined, the Ki is a dissociation constant, usually derived from enzyme kinetics or from competition with a known ligand. Turning to `C[C@H]1CN(CCC(C)(C(=O)N(C)Cc2cccc(C(F)(F)F)c2)c2ccc(Cl)c(Cl)c2)CCN1S(C)(=O)=O` (stereo partly drawn) [Example 87, 2-(3,4-Dichloro-phenyl)-4-((S)-4-methanesulfonyl-3-methyl-piperazin-1-yl)-2,N-dimethyl-N-(3-trifluoromethyl-benzyl)-butyramide], the Ki is 0.052 µM. In the case of `C[C@H]1CN(CCC(C)(C(=O)N(C)Cc2cccc(Cl)c2)c2ccc(Cl)c(Cl)c2)CCN1S(C)(=O)=O` (stereo partly drawn) [Example 88, N-(3-Chloro-benzyl)-2-(3,4-dichloro-phenyl)-4-((S)-4-methanesulfonyl-3-methyl-piperazin-1-yl)-2,N-dimethyl-butyramide], the Ki came out at 0.107 µM. For `C[C@H]1CN(CCC(C)(C(=O)N(C)Cc2cccc(F)c2)c2ccc(Cl)c(Cl)c2)CCN1S(C)(=O)=O` (stereo partly drawn) [Example 89, 2-(3,4-Dichloro-phenyl)-N-(3-fluoro-benzyl)-4-((S)-4-methanesulfonyl-3-methyl-piperazin-1-yl)-2,N-dimethyl-butyramide], the Ki was found to be 0.266 µM.

Take `C[C@H]1CN(CCC(C)(C(=O)N(C)Cc2ccc(C(F)(F)F)nc2)c2ccc(Cl)c(Cl)c2)CCN1S(C)(=O)=O` (stereo partly drawn) [Example 90, 2-(3,4-Dichloro-phenyl)-4-((S)-4-methanesulfonyl-3-methyl-piperazin-1-yl)-2,N-dimethyl-N-(6-trifluoromethyl-pyridin-3-ylmethyl)-butyramide]: the Ki amounted to 0.525 µM. As to `C[C@H]1CN(CCC(C)(C(=O)NCc2ccc(C(F)(F)F)nc2)c2ccc(Cl)c(Cl)c2)CCN1S(C)(=O)=O` (stereo partly drawn) [Example 91, 2-(3,4-Dichloro-phenyl)-4-((S)-4-methanesulfonyl-3-methyl-piperazin-1-yl)-2-methyl-N-(6-trifluoromethyl-pyridin-3-ylmethyl)-butyramide], the Ki was determined as 0.906 µM. For the molecule `C[C@@H]1CN(CCC(C)(C(=O)NCc2ccc(C(F)(F)F)nc2)c2ccc(Cl)c(Cl)c2)CCN1S(C)(=O)=O` (stereo partly drawn) [Example 92, 2-(3,4-Dichloro-phenyl)-4-((R)-4-methanesulfonyl-3-methyl-piperazin-1-yl)-2-methyl-N-(6-trifluoromethyl-pyridin-3-ylmethyl)-butyramide], the Ki came to 0.582 µM. As for `CC(CCN1CCCN(S(C)(=O)=O)CC1)(C(=O)NCc1ccc(C(F)(F)F)c(F)c1)c1ccc(Cl)c(Cl)c1` (centres unmarked) [Example 95, 2-(3,4-Dichloro-phenyl)-N-(3-fluoro-4-trifluoromethyl-benzyl)-4-(4-methanesulfonyl-[1,4]diazepan-1-yl)-2-methyl-butyramide], the Ki was determined as 0.0643 µM.

For `CN(Cc1ccc(C(F)(F)F)cc1)C(=O)C(C)(CCN1CCCN(S(C)(=O)=O)CC1)c1ccc(Cl)c(Cl)c1` (centres unmarked) [Example 96, 2-(3,4-Dichloro-phenyl)-4-(4-methanesulfonyl-[1,4]diazepan-1-yl)-2,N-dimethyl-N-(4-trifluoromethyl-benzyl)-butyramide], the Ki was found to be 0.0245 µM.

For the molecule `CN(Cc1ccc(Cl)cc1)C(=O)C(C)(CCN1CCCN(S(C)(=O)=O)CC1)c1ccc(Cl)c(Cl)c1` (centres unmarked) [Example 97, N-(4-Chloro-benzyl)-2-(3,4-dichloro-phenyl)-4-(4-methanesulfonyl-[1,4]diazepan-1-yl)-2,N-dimethyl-butyramide], the inhibitory constant (Ki) turned out to be 0.0299 µM. In the case of `CC(CCN1CCCN(S(C)(=O)=O)CC1)(C(=O)NCc1ccc(Cl)c(F)c1)c1ccc(Cl)c(Cl)c1` (centres unmarked) [Example 98, N-(4-Chloro-3-fluoro-benzyl)-2-(3,4-dichloro-phenyl)-4-(4-methanesulfonyl-[1,4]diazepan-1-yl)-2-methyl-butyramide], the Ki worked out at 0.066 µM. `CC(CCN1CCCN(S(C)(=O)=O)CC1)(C(=O)NCc1ccc(OC(F)(F)F)cc1)c1ccc(Cl)c(Cl)c1` (centres unmarked) [Example 99, 2-(3,4-Dichloro-phenyl)-4-(4-methanesulfonyl-[1,4]diazepan-1-yl)-2-methyl-N-(4-trifluoromethoxy-benzyl)-butyramide]: the Ki was determined as 0.128 µM.
